Laboratory results published in patent US12428443B2, “Abiraterone precursor compound and preparation method and use thereof” (SUZHOU AIHE PHARMACEUTICAL TECHNOLOGY CO., LTD., priority 2021, dated 2025).
Like-named read-outs stand apart in the source and are kept apart here.

Columns and labels:
[1] = Comparative study of pharmacokinetic properties in Beagle dogs (oral); assay type: in vivo
Protocol: Four healthy Beagle dogs with body weights in a range of 6 kg to 8 kg were selected. The Beagle dogs were fasted for 12 h the day before an experiment, and all were given a low-fat standard meal after administration. The Beagle dogs should not be administered with other drugs two weeks before the experiment and during the experiment. The four Beagle dogs were randomly divided into a group A and a group B (2 dogs in each group). LHY-AB614 was administered orally at a dose of 46.8 mg/kg (32.2 mg/kg based on abiraterone), and abiraterone acetate was administered orally at a dose of 42.3 mg/kg (37.8 mg/kg based on abiraterone). Blank blood was collected in an EDTA-K2 anticoagulation tube before administration, and at 0.25 h, 0.5 h, 1.0 h, 2.0 h, 4.0 h, 6.0 h, 8.0 h, and 24.0 h after administration, 1 mL of blood was collected in EDTA-K2 anticoagulation tubes. After blood was fully mixed with an anticoagulant, each of the anticoagulation tubes was immediately placed in ice and centrifuged as soon as possible to isolate plasma, and the isolated plasma was stored in labeled EP tubes. 50 μL of a plasma sample was taken, 300 μL of a 10 ng/mL carbamazepine-containing acetonitrile solution was added for protein precipitation, and a resulting mixture was vortexed for 5 min and then centrifuged in a centrifuge at 5,500 g for 10 min; and 100 μL of a resulting supernatant was taken, 300 μL of 50%-methanol water was added for dilution, a resulting dilution was vortexed, and 5 μL of a vortexed dilution was injected. In vivo drug concentrations of LHY-AB614, abiraterone acetate, and abiraterone were determined by HPLC-MS/MS.

[2] = cited from earlier work
[3] = tested on: LNCAP clone FGC; test: CellTiter-Glo chemiluminescent cell viability assay (CTG method), LNCAP; assay type: cell-based; conditions: LNCAP cells, 72 h; for IC50: read-out: Absolute IC50
Protocol: (§1) Half-maximal inhibitory concentrations (IC50) of abiraterone acetate and LHY-AB614 for proliferation of LNCAP clone FGC and VCAP were assessed by a CellTiter-Glo® chemiluminescent cell viability assay (namely, a CTG method). Cells in an exponential phase were collected, and live cells were counted. Each cell suspension was adjusted with a corresponding medium to an appropriate concentration. 90 μL of a cell suspension was added to each well of a 96-well plate and cultivated in a 37° C. and 5% CO2 incubator for 24 h. A sample to be tested was dissolved in DMSO to prepare a stock solution with a starting concentration of 50 μM, and the stock solution was 3-fold diluted with a medium to obtain 10× working solutions with 9 concentrations. Cisplatin, as a reference compound, was dissolved in DMSO to prepare a stock solution with a starting concentration of 100 μM, and the stock solution was 3-fold diluted with a medium to obtain 10× working solutions with 9 concentrations. 10 μL of a working solution was added to cells in each well, and then the cells were cultivated in a 37° C. and 5% CO2 incubator for 72 h. The 96-well plate was equilibrated at room temperature for about 30 min, then 50 μL of a CTG solution was added to each well, and the 96-well plate was shaken on a microplate shaker for 2 min to perform cell lysis and placed at room temperature for 20 min to stabilize a fluorescence signal. A fluorescence signal value was determined with an Envision2104 plate reader. On the GraphPad Prism software, a nonlinear regression model was used to plot an S-type dose-response curve and calculate an IC50 value.

[4] = Solubility test in normal saline; assay type: physicochemical; conditions: saline or isotonic, thermodynamic from solid
Protocol: 200 mg of LHY-AB614-622 was weighed, and 1 mL of normal saline was added.
2 mg of abiraterone acetate was weighed and dissolved in 1 mL of normal saline, a resulting solution was stirred overnight and then subjected to suction filtration, and a resulting filtrate was subjected to HPLC analysis. Abiraterone acetate was dissolved in methanol to prepare a 0.1 mg/mL solution as a control.

[5] = tested on: VCAP; test: CellTiter-Glo chemiluminescent cell viability assay (CTG method), VCAP; assay type: cell-based; conditions: VCAP cells, 72 h; for IC50: read-out: Absolute IC50
Protocol: as §1

[6] = Beagle, dog, in vivo, po, 46.8 mg/kg

Question: Which “species detected in vivo after administration” value ([1]; oral, Beagle dogs, plasma, HPLC-MS/MS) does the source give for `CC(=O)O[C@H]1CC[C@@]2(C)C(=CC[C@@H]3[C@@H]2CC[C@]2(C)C(c4cccnc4)=CC[C@@H]32)C1` [Abiraterone acetate, abiraterone acetate] here?
Answer: Its value is “Only abiraterone is detected in vivo”.

Question: And the death risk reduced ([2]; combination with prednisone versus placebo and prednisone)?
Answer: The death risk reduced was 35%.

Question: And the “median survival time prolonged versus placebo and prednisone” value ([2]; combination with prednisone, p<0.0001)?
Answer: Its value is 3.9 months.

Question: What about the median survival time ([2]; patient treated with a combination of abiraterone acetate and prednisone) of the same compound?
Answer: Its median survival time is 14.8 months.

Question: What about the IC50 ([3]; Homo sapiens, LNCaP-Clone-FGC) of the same compound?
Answer: The IC50 was 15.5 µM.

Question: What about the Max inhibition [3] of the same compound?
Answer: Its Max inhibition is 78.30%.

Question: And the solubility [4]?
Answer: Its solubility is < 100 µg/mL.

Question: What about the IC50 ([5]; Homo sapiens) of the same compound?
Answer: Its IC50 is > 50 µM.

Question: And the Max inhibition [5]?
Answer: Its Max inhibition is 29.43%.

Question: With `N.N.[Cl][Pt][Cl]` [Cisplatin] as the compound, how does the Max inhibition [3] read?
Answer: Its Max inhibition is 97.49%.

Question: And the IC50 [3]?
Answer: Its IC50 is 12.8 µM.

Question: And the Max inhibition [5]?
Answer: The Max inhibition was 85.02%.

Question: And the IC50 [5]?
Answer: Its IC50 is 40.3 µM.

Question: Which IC50 ([3]; Homo sapiens, LNCaP-Clone-FGC) does the source give for `CN(C)CCOCCOC(=O)O[C@H]1CC[C@@]2(C)C(=CC[C@@H]3[C@@H]2CC[C@]2(C)C(c4cccnc4)=CC[C@@H]32)C1` [Compound represented by formula I] here?
Answer: Its IC50 is 3.2 µM.

Question: And the Max inhibition [3]?
Answer: Its Max inhibition is 99.49%.

Question: And the IC50 ([5]; Homo sapiens)?
Answer: The IC50 was 5.7 µM.

Question: What about the Max inhibition [5] of the same compound?
Answer: The Max inhibition was 99.31%.

Question: With `CN(C)CCOCCOC(=O)O[C@H]1CC[C@@]2(C)C(=CC[C@@H]3[C@@H]2CC[C@]2(C)C(c4cccnc4)=CC[C@@H]32)C1` [LHY-AB614] as the compound, how does the “species detected in vivo after administration” value ([1]; Beagle, dog, in vivo, po) read?
Answer: Its value is “LHY-AB614 and abiraterone both can be detected in vivo”.

Question: What about the AUC0-inf [1, 6] of the same compound?
Answer: The AUC0-inf was 6186 ng·h/mL.

Question: What about the AUC0-t [1, 6] of the same compound?
Answer: Its AUC0-t is 6116 ng·h/mL.

Question: What about the AUC(0-inf) [1, 6] of the same compound?
Answer: The AUC(0-inf) was 1060 ng·h/mL.

Question: And the AUC(0-t) [1, 6]?
Answer: The AUC(0-t) was 908 ng·h/mL.

Question: And the “Cls, app” value [1, 6]?
Answer: The value was 757.

Question: What about the T1/2 [1, 6] of the same compound?
Answer: Its T1/2 is 3.7 h.

Question: What about the Tmax [1, 6] of the same compound?
Answer: Its Tmax is 1.5 h.

Question: And the half-life [1, 6]?
Answer: Its half-life is 408 min.

Question: And the “AUC compared with the administration of abiraterone acetate” value ([1]; dog, in vivo, po)?
Answer: Its value is “significantly increases”.

Question: What about the “Cmax of abiraterone compared with Cmax of LHY-AB614” value ([1]; dog, in vivo, po) of the same compound?
Answer: Its value is “much higher”.

Question: What about the “Cmax of abiraterone compared with the administration of abiraterone acetate” value ([1]; dog, in vivo, po) of the same compound?
Answer: Its value is “significantly increases”.

Question: And the “Tmax compared with the administration of abiraterone acetate” value ([1]; dog, in vivo, po)?
Answer: The value was “does not change”.

Question: And the IC50 ([3]; Homo sapiens, LNCaP-Clone-FGC)?
Answer: Its IC50 is 3.2 µM.

Question: And the IC50 ([5]; Homo sapiens)?
Answer: The IC50 was 5.7 µM.
